Target: p-p38 MAPK (Mus musculus (Mouse), UniProt P47811)
Experiment: p38 MAPK protein inhibitory ability in cells (p-p38 immunoblot, LPS-treated Raw264.7)
Type: cell-based
Settings: Raw264.7 cells, 1 μM compound 24 hours, then 100 ng/ml LPS 6 hours
Method: Evaluation of p38 MAPK protein inhibitory ability in cells
In order to identify inhibition of p-p38 MAPK, inhibition of p38 MAPK was identified after treating each compound to Raw264.7 cells which are obtained by converting macrophages that induces inflammation according to p-p38 MAPK activity into cancerous cells. Briefly, Raw264.7 cells were cultured in Dulbecco's modified Eagle Medium supplemented with 10% fetal bovine serum and penicillin/streptomycin (100 U/ml). Raw264.7 cells were treated with 1 μM of Compounds 1 to 5 according to the present disclosure in a culture dish respectively and cultured for 24 hours in a CO2 incubator, and then treated with 100 ng/ml of LPS, followed by additional culture for 6 hours in a CO2 incubator.
After cell culture was terminated according to the experimental conditions, cells were washed with cold phosphate buffered saline (PBS). The cells were then collected and centrifuged at 1200 rpm for 3 minutes. The pellet was lysed with 2X sample buffer (1M Tris-HCl pH 6.8, 50% glycerol, 10% SDS, 2-mercaptoethanol, 1% bromophenol blue) and boiled at 100° C. for 10 minutes. The prepared protein samples were subjected to sodium dodecyl sulfate poly acrylamide gel electrophoresis and transferred to PVDF membrane (Millipore). For a specific binding reaction between the protein in the PVDF membrane and antibody, blocking was performed in a 5% bovine serum albumin (BSA, RMbio) solution. Subsequently, the BSA solution was discarded, and the membrane was washed with PBS-T (0.5% Tween 20 in PBS). The binding reaction of the protein in the membrane and antibody was performed overnight at 4° C. and washed again with PBS-T. Finally, a secondary antibody (Cell signaling Technology) conjugated with horse radish peroxidase (HRP) was diluted in PBS-T and reacted at room temperature for 2 hours. Luminata Forte HRP substrate (Millipore) was used to determine the amount of protein in the membrane, the results of which are shown in Table 4 below.

Sequence of p-p38 MAPK (P47811 whole entry): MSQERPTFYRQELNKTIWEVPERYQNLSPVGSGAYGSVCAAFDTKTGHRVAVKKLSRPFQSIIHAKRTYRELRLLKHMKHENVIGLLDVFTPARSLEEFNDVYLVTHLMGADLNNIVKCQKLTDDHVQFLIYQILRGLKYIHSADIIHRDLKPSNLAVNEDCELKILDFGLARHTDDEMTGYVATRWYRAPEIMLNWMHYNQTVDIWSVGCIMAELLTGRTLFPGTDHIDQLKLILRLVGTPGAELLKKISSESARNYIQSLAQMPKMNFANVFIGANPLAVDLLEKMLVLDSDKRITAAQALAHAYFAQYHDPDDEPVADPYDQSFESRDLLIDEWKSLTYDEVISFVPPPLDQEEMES

inhibition at 1 µM: 68%
SMILES: Cc1c(F)cc(C(=O)NC2CC2)cc1-c1ccc(C(=O)c2c[nH]c3ccccc23)cn1 [Compound 4, 3-(5-(1H-indole-3-carbonyl)pyridin-2-yl)-N-cyclopropyl-5-fluoro-4-methylbenzamide]
